Assay results as given in BigSolDB 2.1.

CCOc1ccc2ccccc2c1C(=O)O
solubility (mole fraction)
Settings | 278.15 K | 283.15 K | 288.15 K | 293.15 K | 298.15 K | 303.15 K | 308.15 K | 313.15 K | 318.15 K | 323.15 K
in ethanol | 0.0268 | 0.0325 | 0.0392 | 0.0469 | 0.0565 | 0.0688 | 0.0836 | 0.101 | 0.119 | 0.136
in methanol | 0.0304 | 0.037 | 0.0443 | 0.0552 | 0.0671 | 0.0821 | 0.0951 | 0.114 | 0.134 | 0.151
in n-propanol | 0.0212 | 0.0236 | 0.0283 | 0.0345 | 0.0424 | 0.0511 | 0.0632 | 0.0779 | 0.092 | 0.114
